Reference: US10590137B2, “Mercaptopurine hemihydrate” (THE REGENTS OF THE UNIVERSITY OF MICHIGAN, priority 2016, dated 2020)
Where two headings read alike, the source gives them in different places.

How the values were obtained:
[1] = stability to hydration: slurry conversion monitored by non-contact Raman probe; format: physicochemical; details: aqueous slurry; for time to convert to the monohydrate form: full conversion
Experimental: In order to determine the stability to hydration, slurries of the anhydrate and hemihydrate forms were monitored using a non-contact Raman probe.
Raman spectra during slurry conversion were collected using a Kaiser Optical Systems Raman Rxn Microprobe equipped with a Multi-Rxn non-contact optic, 785 nm laser, and a multi-channel CCD detector. Spectra were collected with a range of 150-3425 cm^−1 and then analyzed using the HoloGRAMS 4.1 software package (Kaiser). Calibration was performed using a HoloLab Calibration Accessory and a cyclohexane standard.

[2] = pharmacokinetic studies in rats (oral suspension vs IV); format: in vivo, Male Sprague-Dawley rats; details: rat; for % F (bioavailability): oral 30 mg/kg vs IV 15 mg/kg monohydrate; for AUC / Cmax / Tmax: oral gavage 30 mg/kg suspension, 30 mg/kg; for AUC / Cmax: plasma
Experimental: The bioavailability of the three forms was determined by comparison of suspension and intravenous administration in order to quantify the effect. […] Since the Tmax of the hemihydrate was much higher than the other two forms, it seems more compound was able to be absorbed overall even though over a somewhat longer time period, whereas the monohydrate and anhydrate were limited due to the solubility of the monohydrate form (FIG. 3).
Pharmacokinetic studies in rats were performed at Avastus Preclinical Services, Cambridge, Mass. All procedures were performed in accordance with the Guide for Care and Use of Laboratory Animals and were approved by the Avastus Institutional Animal Care and Use Committee. Male Sprague-Dawley rats weighing 200-300 g were dosed with mercaptopurine via oral gavage with a dosing volume of 5 mL/kg and a dose of 30 mg mercaptopurine form/kg or via IV administration at a dosing volume of 5 mL/kg and a dose of 15 mg mercaptopurine monohydrate/kg. Each group consisted of three rats, with one oral administration group for each form of mercaptopurine, and one IV administration group using the monohydrate form for reference. Blood samples were collected at time points of 15, 30, 60, 120, 240 minutes as well as 8 and 24 hours post dose. An additional time point at 5 minutes was taken for the IV administration group. Samples were centrifuged and the decanted plasma samples were stored at −80° C. until analysis.
The plasma samples were analyzed via LC-MS/MS using an Agilent 6410 mass spectrometer coupled with an Agilent 1200 HPLC and a CTC PAL chilled autosampler, all controlled by MassHunter software (Agilent). All plasma samples were crashed with three volumes of methanol containing an […] and centrifuged to remove precipitated protein before analysis. Samples were compared to a calibration curve prepared in rat blank plasma. Separation was performed on a C18 reverse phase HPLC column (Kinetex PFP, 2.6 μm, 2.1×50 mm) using an acetonitrile-water gradient system and peaks were analyzed by MS using ESI ionization in MRM mode. Peak area ratio to internal standard is used to interpolate plasma concentration for each sample from the calibration curve of peak area internal standard ratio to concentration. Pharmacokinetic parameters were fit using a custom WinNonlin analysis with PO dosing analysis. Area under the curve (AUC) for mercaptopurine was also calculated using the custom WinNonlin analysis. Cmax (maximum plasma concentration) and Tmax (time to reach maximum plasma concentration) were determined by visual inspection of the experimental data. The bioavailability (% F) was calculated from the following equation:
[formula] Frel was calculated with respect to the monohydrate form.

[3] = maximum solubility in water by turbidity measurements (CrystalBreeder); details: at 37° C., Van't Hoff
Experimental: (§1) Solubility measurements were taken using a CrystalBreeder system (Technobis). Known amounts of solid compound and water were added to 0.3 mL clear round bottom vials equipped with a stir bar. The vials were sealed with a Teflon coated rubber crimped caps to prevent evaporation of solvent. Vials were loaded into one of the independently heated aluminum reactor blocks and turbidity measurements were taken using an LED light source and detector to measure particles in solution. Samples were heated to 85° C. at a rate of 0.2° C./min, held at 85° C. for 30 minutes, and then cooled to 0° C. at a rate of 0.2° C./min. Clear points were calculated based on the temperature at which 100% transmittance of solution was reached. Van't Hoff plots of concentration vs. time were produced from the data using CrystalClear software (Technobis) to determine the solubility of each form at different temperatures.

[4] = thermally-induced phase transitions by DSC and variable temperature PXRD; format: physicochemical; details: for loss of crystallinity corresponding with a loss of water: variable temperature PXRD, conversion to anhydrate
Experimental: DSC analysis and variable temperature PXRD were used to analyse the thermally-induced phase transitions of the compounds.
Variable temperature PXRD data were collected on a Rigaku SmartLab diffractometer using Cu-Kα radiation (λ=1.54187 Å) and operating at 40 kV and 44 mA. Samples were placed on a glass cover slip on top of a copper block that was heated at 2° C./min using a J-KEM Model 210 temperature controller. The setup was covered with a housing of Kapton to keep heat in but allow X-rays to penetrate. The spectrum was collected by scanning […] from 20 to 29° with a step size of 0.01° and a step speed of 0.1 seconds. Powder patterns were processed using Jade 8 XRD Pattern Processing, Identification & Quantification analysis software.^1
Thermograms of the monohydrate and hemihydrate forms were recorded on a TA Instruments Q20 DSC. […] Calibration of the instrument was performed using an indium standard. Thermograms were analyzed using TA Universal Analysis 2000, V 4.5A.

some cancer lines = details: cited from earlier work
[5] = at 37° C.; background statement; cited from earlier work
physchem = details: water, 37 °C, thermodynamic from solid
Experimental: as §1

## Sc1ncnc2nc[nH]c12 [Anhydrate, mercaptopurine]
[1]
  time to convert to the monohydrate form: 2 to 5 h
[2]
  % F (bioavailability): 2.9%
  AUC: 430 ± 30 ng·h/mL
  Cmax: 260 ± 10 ng/mL
  Tmax: 49.8 ± 17.4 min
[3]
  average solubility in water: 400 µg/mL

## Sc1ncnc2nc[nH]c12 [Hemihydrate, mercaptopurine hemihydrate]
[1]; hemihydrate
  time to convert to the monohydrate form: approximately 70 hours
[1]; onset
  time at which conversion to the monohydrate begins: approximately 5 hours
[2]; hemihydrate
  % F (bioavailability): 3.8%
  AUC: 570 ± 120 ng·h/mL
  Cmax: 280 ± 110 ng/mL
  Tmax: 100 ± 34.8 min
[3]; hemihydrate
  average solubility in water: 390 µg/mL
[4]; DSC / variable temperature PXRD
  dehydration temperature (water loss, endothermic event): 240 °C
[4]; hemihydrate
  loss of crystallinity corresponding with a loss of water: does not show any loss of crystallinity

## S=c1[nH]cnc2nc[nH]c12 [Mercaptopurine]
Some cancer lines
  IC50: 500 nM

## Sc1ncnc2nc[nH]c12 [Monohydrate, mercaptopurine monohydrate]
[5]
  water solubility: 249 µg/mL
[2]; male, Sprague-Dawley, po, read-out: Cmax
  Cmax: 230 ± 50 ng/mL
[2]; monohydrate
  % F (bioavailability): 1.4%
  AUC: 210 ± 60 ng·h/mL
  Tmax: 49.8 ± 17.4 min
physchem
  solubility: 249 µg/mL
[4]; open DSC pan
  Tmax of merged endothermic event (water loss and loss of crystallinity): 177 °C
[4]; sealed DSC pan
  loss of crystallinity event: ~190 °C
  water loss event: ~140 °C
[4]; monohydrate
  loss of crystallinity corresponding with a loss of water: ~160 °C
